Laboratory results taken from patent publication US9512140B2, “(Thieno[2,3-b][1,5]benzoxazepin-4-yl)piperazin-1-yl compounds as dual activity H1 inverse agonists/5-HT2A antagonists” (priority 2011, dated 2016).
Where a name gives a salt, the structure may show the parent alone.

Experiments:
Dopamine D1 = Dopamine D1 (Homo sapiens, UniProt P21728); assay: Dopamine D1 binding
From the text: (§1) Further, the compounds of the invention may be tested in binding assays and functional activity assays by well known methods for other physiologically important receptors such as, but not limited to, the hERO channel, other serotonin receptors (specifically 5-HT1B, 5-HT1D, receptors, lack of agonist activity at 5-HT2B receptors, 5-HT2C, 5-HT5, 5-HT6, and 5-HT7 receptors), dopaminergic receptors (specifically D1, D2, and D3), GABAA receptors, adrenergic receptors and monoamine transporters.

Serotonin Transporter = Serotonin Transporter (Homo sapiens, UniProt P31645); assay: Serotonin transporter binding
Chain of Serotonin Transporter (P31645 whole entry): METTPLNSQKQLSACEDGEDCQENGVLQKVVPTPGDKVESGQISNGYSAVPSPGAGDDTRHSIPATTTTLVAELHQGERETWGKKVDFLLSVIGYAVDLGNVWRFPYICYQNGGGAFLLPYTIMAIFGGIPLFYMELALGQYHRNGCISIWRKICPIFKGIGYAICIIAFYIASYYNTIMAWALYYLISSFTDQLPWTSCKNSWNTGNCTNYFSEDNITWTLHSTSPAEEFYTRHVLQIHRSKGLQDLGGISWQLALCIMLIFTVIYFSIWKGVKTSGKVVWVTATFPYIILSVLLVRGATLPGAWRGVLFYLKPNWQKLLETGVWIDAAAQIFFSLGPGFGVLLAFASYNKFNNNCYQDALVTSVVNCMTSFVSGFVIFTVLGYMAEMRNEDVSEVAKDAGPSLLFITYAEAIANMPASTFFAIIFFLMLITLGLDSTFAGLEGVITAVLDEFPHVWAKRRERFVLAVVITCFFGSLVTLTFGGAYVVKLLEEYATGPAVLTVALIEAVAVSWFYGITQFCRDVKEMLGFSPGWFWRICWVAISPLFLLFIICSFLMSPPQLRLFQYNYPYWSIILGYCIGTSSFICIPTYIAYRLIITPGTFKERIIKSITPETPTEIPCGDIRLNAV
From the text: as §1

5-HT5 = 5-HT5 (Homo sapiens, UniProt P47898); assay: 5-HT5 binding
Chain of 5-HT5 (P47898 whole entry, species assumed): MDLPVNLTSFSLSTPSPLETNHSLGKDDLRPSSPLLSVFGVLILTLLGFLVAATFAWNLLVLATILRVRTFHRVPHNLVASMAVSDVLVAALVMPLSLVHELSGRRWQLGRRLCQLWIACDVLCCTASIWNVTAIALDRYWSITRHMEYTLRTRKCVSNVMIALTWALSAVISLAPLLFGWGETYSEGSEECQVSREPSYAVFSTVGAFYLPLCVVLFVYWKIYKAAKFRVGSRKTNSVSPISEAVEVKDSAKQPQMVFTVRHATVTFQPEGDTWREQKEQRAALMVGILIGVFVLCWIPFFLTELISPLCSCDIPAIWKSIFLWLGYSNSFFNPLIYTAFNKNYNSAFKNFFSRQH
From the text: as §1

5-HT2A receptor = target: T1, 5-HT2A receptor (Mus musculus, UniProt P35363); assay: Inhibition of DOI induced headshake activity; format: in vivo; details: 10 mg/kg PO, mice, DOI 3 mg/kg, read-out: inhibition of DOI induced headshake response
T1 construct: from tissue; host or cells: living C57BL/6J mice
T1 sequence (P35363 whole entry): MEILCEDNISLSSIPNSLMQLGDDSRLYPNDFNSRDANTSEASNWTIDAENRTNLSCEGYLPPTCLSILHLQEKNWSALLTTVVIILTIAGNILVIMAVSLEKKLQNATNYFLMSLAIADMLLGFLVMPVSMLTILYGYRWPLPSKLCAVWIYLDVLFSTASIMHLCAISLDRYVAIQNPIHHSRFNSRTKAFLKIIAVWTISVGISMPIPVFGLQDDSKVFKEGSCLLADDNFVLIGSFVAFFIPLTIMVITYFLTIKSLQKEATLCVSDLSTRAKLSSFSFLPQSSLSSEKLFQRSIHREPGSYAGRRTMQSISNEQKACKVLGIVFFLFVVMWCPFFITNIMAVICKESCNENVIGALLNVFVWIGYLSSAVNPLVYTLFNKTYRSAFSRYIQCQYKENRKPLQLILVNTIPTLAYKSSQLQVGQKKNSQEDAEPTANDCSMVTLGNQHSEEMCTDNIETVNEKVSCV
Protocol: (see for example Bartoszyk G D, van Amsterdam C, Böttcher H, Seyfried C A. EMD 281014, a new selective serotonin 5-HT2A receptor antagonist. Eur J Pharmacol. 2003 473: 229-230.) Briefly, male C57BL/6J mice (20-25 g, Charles River) are housed in standard housing conditions (32 mice in a large IVC cage, 07.00 to 19.00 light phase, constant temperature (19-23° C.) and humidity (50%+/−10), ad lib food and water). Mice received either vehicle (0.25% Methyl cellulose), DOI (3 mg/kg in saline) or test compound at 10 mg/kg PO plus DOI (3 mg/kg in saline). Test compounds are individually evaluated in groups of four per experiment with n=4 for each compound, together with vehicle and DOI+vehicle (n=8). After a test compound pre-treatment time of 60 min. the mice receive either vehicle (saline) or 3 mg/kg DOI dosed subcutaneously, and are then placed into clear perspex observation chambers. […] The data is analyzed using an ANOVA and post-hoc Dunnet's Test. The compound of example 2 is tested essentially as described and is found to inhibit the DOI induced headshake response at 100% at 10 mg/kg.

[1] = target: T2, recombinant 5-HT2C receptor (human) (Homo sapiens, UniProt P28335); assay: 5-HT2C competition binding assay ([125I]-DOI, SPA)
T2 construct: expressed in transfected cells; host or cells: AV-12 (membranes)
T2 sequence (P28335 33-458): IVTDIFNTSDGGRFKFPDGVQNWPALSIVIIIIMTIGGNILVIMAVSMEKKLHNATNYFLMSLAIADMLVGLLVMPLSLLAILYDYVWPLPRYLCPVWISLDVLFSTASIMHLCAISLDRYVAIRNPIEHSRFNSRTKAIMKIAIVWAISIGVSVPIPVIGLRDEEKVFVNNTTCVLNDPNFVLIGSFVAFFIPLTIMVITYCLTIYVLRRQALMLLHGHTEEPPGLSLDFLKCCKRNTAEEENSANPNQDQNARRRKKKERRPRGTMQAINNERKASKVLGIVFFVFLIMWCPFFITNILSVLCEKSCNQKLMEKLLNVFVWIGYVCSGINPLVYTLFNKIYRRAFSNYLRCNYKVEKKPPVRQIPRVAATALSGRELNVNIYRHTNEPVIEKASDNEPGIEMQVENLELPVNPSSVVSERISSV
Protocol: [^125I]-(±)DOI binding experiments are carried out in SPA 96-well format. Membranes used in this assay are prepared from AV-12 cells stably expressing recombinant 5-HT2C receptor (human). The incubation is initiated by the addition of a mixture of WGA PVT SPA beads (0.5 mg/well, Perkin Elmer (MA, USA), RPNQ0001) and 2.5 μg membranes to assay buffer (50 mM Tris-HCl, 10 mM MgCl2, 0.5 mM EDTA, 10 μM pargyline, 0.1% ascorbic acid, pH7.4) containing 0.2 nM [[^125I]-(±)DOI and varying concentrations of the test compound (10 point concentration response curves). Non-specific binding is determined in the presence of 20 μM 1-(1-Naphthyl) piperazine. Samples are incubated for 4 hr. at room temperature (22° C.) and then read in a Microbeta Trilux.
Curves are evaluated using a 4-parameter logistic nonlinear equation to obtain the concentration of competitor causing 50% inhibition of radioligand binding (IC50). Equilibrium dissociation constants (Ki) are calculated according to the equation Ki=IC50/(1+L/Kd), where L equals the concentration of radioligand used in the experiment and Kd equals the equilibrium dissociation constant of the radioligand for the receptor, determined from standard saturation analysis or homologous competition experiments. […]

Dopamine Transporter = Dopamine Transporter (Homo sapiens, UniProt Q01959); assay: Dopamine transporter binding
Chain of Dopamine Transporter (Q01959 whole entry): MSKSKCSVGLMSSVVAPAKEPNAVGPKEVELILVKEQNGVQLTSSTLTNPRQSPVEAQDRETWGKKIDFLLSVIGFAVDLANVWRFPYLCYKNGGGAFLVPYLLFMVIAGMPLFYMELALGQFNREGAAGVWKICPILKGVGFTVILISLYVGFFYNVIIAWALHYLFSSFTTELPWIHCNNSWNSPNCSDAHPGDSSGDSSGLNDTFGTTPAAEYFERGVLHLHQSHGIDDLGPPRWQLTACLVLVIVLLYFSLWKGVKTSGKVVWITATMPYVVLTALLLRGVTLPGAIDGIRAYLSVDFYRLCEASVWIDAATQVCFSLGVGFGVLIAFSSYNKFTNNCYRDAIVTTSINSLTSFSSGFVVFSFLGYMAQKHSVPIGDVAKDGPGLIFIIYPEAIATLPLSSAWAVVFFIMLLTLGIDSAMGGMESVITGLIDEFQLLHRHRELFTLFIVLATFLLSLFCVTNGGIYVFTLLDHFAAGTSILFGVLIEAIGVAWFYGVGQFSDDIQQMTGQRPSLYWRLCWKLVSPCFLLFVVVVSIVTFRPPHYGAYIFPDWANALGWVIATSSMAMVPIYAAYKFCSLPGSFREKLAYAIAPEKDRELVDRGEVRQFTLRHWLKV
From the text: as §1

Plasma clearance, rat = format: in vivo; details: male, Sprague Dawley, 1 mg/kg, intravenous, 1 mL/kg of 1.0 mg/mL
Protocol: Male Sprague Dawley rats (body weight range 250-320 g) with indwelling femoral arterial cannulae are obtained from Charles River, Wilmington, Mass. 01887, USA. Test compound is administered intravenously in solution (1 mL/kg) in 20% Captisol® in 22.5 mM phosphate buffer, pH 2, at a final drug concentration of 1.0 mg/mL (free base equivalents). Blood samples are obtained using the indwelling cannula over 24 hr. Samples of plasma are obtained by centrifugation and stored frozen (−20° C.), or on dry ice, prior to analysis. Frozen plasma samples are thawed to room temperature for bioanalysis of concentrations of test compound. A related internal standard compound in acetonitrile/methanol (1:1, v/v) is added to all samples of plasma (1:1, v/v). The samples are centrifuged to remove precipitated protein prior to analysis. The supernatants are analysed by injection and rapid gradient elution on a Javelin Betasil C18 column (20×2.1 mm cartridge, Mobile phase A: Water/1 M NH4HCO3, 2000:10 v/v, Mobile Phase B: MeOH/1 M NH4HCO3, 2000:10 v/v). The eluted analytes are detected by LC-MS-MS analysis using a Sciex API 4000 triple quadrupole mass spectrometer. Concentrations of compound are determined from standards prepared and analysed under identical conditions. Clearance is calculated using non-compartmental analysis in Watson 7.4, Thermo Fisher Scientific, Inc.

Adrenergic alpha2C = Adrenergic alpha2C (Homo sapiens, UniProt P18825); assay: Adrenergic alpha2C binding
Chain of Adrenergic alpha2C (P18825 whole entry): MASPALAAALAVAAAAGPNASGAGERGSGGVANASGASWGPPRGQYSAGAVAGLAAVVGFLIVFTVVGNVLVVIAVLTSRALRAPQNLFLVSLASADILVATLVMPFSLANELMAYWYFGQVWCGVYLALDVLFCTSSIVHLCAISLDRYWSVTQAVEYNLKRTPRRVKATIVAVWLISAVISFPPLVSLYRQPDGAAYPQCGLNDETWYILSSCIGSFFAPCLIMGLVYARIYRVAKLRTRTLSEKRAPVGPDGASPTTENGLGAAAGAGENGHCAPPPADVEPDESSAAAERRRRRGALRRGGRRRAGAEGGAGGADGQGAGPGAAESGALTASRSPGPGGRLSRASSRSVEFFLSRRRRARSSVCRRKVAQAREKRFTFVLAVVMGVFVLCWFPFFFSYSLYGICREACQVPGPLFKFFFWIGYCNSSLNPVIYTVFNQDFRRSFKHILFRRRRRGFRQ
From the text: as §1

Chain of Dopamine D1 (P21728 whole entry): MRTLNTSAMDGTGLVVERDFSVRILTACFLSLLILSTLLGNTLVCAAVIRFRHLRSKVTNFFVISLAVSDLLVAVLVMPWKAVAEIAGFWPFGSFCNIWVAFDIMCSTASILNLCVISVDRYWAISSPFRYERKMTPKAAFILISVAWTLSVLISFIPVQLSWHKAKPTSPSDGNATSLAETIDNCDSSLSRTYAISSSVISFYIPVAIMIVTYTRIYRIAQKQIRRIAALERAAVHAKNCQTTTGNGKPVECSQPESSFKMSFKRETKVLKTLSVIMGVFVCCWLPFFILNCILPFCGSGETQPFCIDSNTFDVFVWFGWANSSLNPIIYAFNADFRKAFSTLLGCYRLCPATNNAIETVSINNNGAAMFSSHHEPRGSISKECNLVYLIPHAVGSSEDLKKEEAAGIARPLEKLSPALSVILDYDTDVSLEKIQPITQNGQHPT

Cc1ccc2c(c1)Oc1sc(C)cc1C(N1CCN(CC(C)(C)C(=O)O)CC1)=N2 [Example 2, 3-[4-(2,8-Dimethylthieno[2,3-b][1,5]benzoxazepin-4-yl)piperazin-1-yl]-2,2-dimethyl-propanoic acid dihydrochloride]
Ki (Dopamine D1): 2350 nM | Ki (Serotonin Transporter): > 651 nM | Ki (5-HT5): > 8830 nM | inhibition at 10 mg/kg (5-HT2A receptor): 100% | Ki [1]: 883 nM | Ki (Dopamine Transporter): > 877 nM | clearance (Plasma clearance, rat): 27 mL/min/kg | Ki (Adrenergic alpha2C): > 5550 nM
